# Assay results taken from US12516038B2, “Inhibitors of antigen presentation by HLA-DR” (Janssen Pharmaceutica NV, priority 2020, dated 2026).
# What was measured:
# [1] = tested on: HLA-DR4 restricted mouse T cell hybridoma line (DR4.CII.36.8) with HLA-DRB1*04:01-expressing Boleth cells; assay: HLA-DR4-restricted peptide-specific T cell-based assay (hybridoma assay); settings: Mus musculus, T-cell, 6 h, inhibition of IL-2 production, CII259-273 peptide presented by Boleth cells
# Method in brief: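 IC50 values derive from 4-parameter logistic fits of IL-2 AlphaLISA signal over 8-point duplicate titrations. Compound and HLA-DRB1*04:01 Boleth APCs were preincubated 1 h, 37° C., before adding CII259-273-restricted DR4.CII.36.8 hybridoma cells with peptide for 6 h at 37° C., in DMEM/1% FCS.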
# [2] = biological target: HLA-DRB1*0401 (Homo sapiens (Human), UniProt P01903+P01911, A100K/A169T/DEL228-266/F76Y/I96L/K127E/L162R/M171V/N62H/P40V/Q125Y/R42H/S133A/S149N/S66Y/V115G/V209L/W38E); assay: HLA-DR4 HTRF assay; type: binding; settings: inhibition of loading of Alexa Fluor 647-labeled Cit-CII peptide onto HLA-DR4 (CLIP cleaved)
# Method in brief: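 HLA-DRB1*04:01 construct (α/β fused to human Fc, CLIP pre-cleaved by HRV3C overnight at 4° C) at 3 nM was preincubated 45 min with compound and 1 nM anti-Fc-Tb donor, then 40 nM Alexa647-Cit-CII1236-1249 peptide added. After 90 min at 37° C, the 665/620 nm HTRF ratio gave % inhibition; IC50 by nonlinear regression.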
# [3] = tested on: human peripheral blood CD4+ helper T cells; assay: Pan-CD4+ T cell activation (off-target assay); type: cell-based; settings: Homo sapiens, T-cell, 24 h, anti-CD3/anti-CD28 stimulation, IL-2 production by ELISA
# Text: The counter-screening was made through an HLA-DR-independent assay (Pan-CD4+ T cell activation assay), i.e., TCR-stimulated pan-T cell activation assay, and consists of activating T cell directly with agonistic antibody targeting the T cell receptor. The lack of inhibition in the counter-screening assay reflects that the inhibition of T cell activation in the HLA-DR4 restricted peptide-specific T cell based assay with the small molecule inhibitors is due to impaired antigen presentation on HLA-DR to the T cell and not due to a direct inhibition of the T cell function by an off-target mechanism (i.e., independently of targeting HLA-DR).
# Pan-CD4+ T Cell Activation
# Compounds were tested using a pan-T cell activation assay. In this assay, anti-human CD3 antibody (BD Pharmingen #55336) pre-coated at 1 μg/mL to a 96-well assay plate and 1 μg/ml soluble anti-human CD28 (EBioscience #16-0289-85) antibody were used for activating human peripheral blood CD4+ helper T cells (no HLA-DR-expressing APC were present in this assay format), in the presence of compounds (or vehicle control) for 24 hrs. IL-2 production was measured in the culture supernatant by ELISA (Human IL-2 Duo Set ELISA #DY202 from R&D Systems).
SMILES,IC50 [1] [µM],IC50 [2] [µM],IC50 [3] [µM]
"O=C1CCOc2cc(OC(c3ccccc3)c3cccnc3)ccc21 (racemic) [Example 115, (R,S)-7-(Phenyl(pyridin-3-yl)methoxy)chroman-4-one]",12,5,15
"CCC1COc2cc(OCc3ccncc3)ccc2C1=O (racemic) [Example 120, (R,S)-3-Ethyl-7-(pyridin-4-ylmethoxy)chroman-4-one]",5.1,1.2,> 15
"Cc1c(OC2CCc3cc(C(N)=O)ccc32)ccc2c1OCCC2=O (racemic) [Example 121, (R,S)-1-((8-Methyl-4-oxochroman-7-yl)oxy)-2,3-dihydro-1H-indene-5-carboxamide]",8.1,0.63,> 15
"O=C1CCOc2cc(O[C@H](c3ccncc3)c3ccccc3F)ccc21 (single isomer, unassigned) [Example 1a, (*R)-7-((2-Fluorophenyl)(pyridin-4-yl)methoxy)chroman-4-one]",3.4,1,> 15
"O=C1CCOc2cc(O[C@@H](c3ccncc3)c3ccccc3F)ccc21 (single isomer, unassigned) [Example 1b, (*S)-7-((2-Fluorophenyl)(pyridin-4-yl)methoxy)chroman-4-one]",3.1,1.2,3.1
"O=C1CCOc2cc(O[C@H](c3ccncc3)c3cccc(F)c3)ccc21 (single isomer, unassigned) [Example 2a, (*R)-7-((3-Fluorophenyl)(pyridin-4-yl)methoxy)chroman-4-one]",1.7,1.6,15
"O=C1CCOc2cc(O[C@@H](c3ccncc3)c3cccc(F)c3)ccc21 (single isomer, unassigned) [Example 2b, (*S)-7-((3-Fluorophenyl)(pyridin-4-yl)methoxy)chroman-4-one]",3.9,1.8,> 15
"O=C1CCOc2cc(O[C@@H](c3ccncc3)c3ccc(F)cc3)ccc21 (single isomer, unassigned) [Example 3a, (*R)-7-((4-Fluorophenyl)(pyridin-4-yl)methoxy)chroman-4-one]",4.2,1.6,15
"O=C1CCOc2cc(O[C@H](c3ccncc3)c3ccc(F)cc3)ccc21 (single isomer, unassigned) [Example 3b, (*S)-7-((4-Fluorophenyl)(pyridin-4-yl)methoxy)chroman-4-one]",2.1,1.3,> 15
"COc1ccc(COc2cccc([C@H](Oc3ccc4c(c3)OCCC4=O)c3ccncc3)c2)cc1 (single isomer, unassigned) [Example 4a, (*R)-7-((3-((4-Methoxybenzyl)oxy)phenyl)(pyridin-4-yl)methoxy)chroman-4-one]",2.9,6.9,7.8
"COc1ccc(COc2cccc([C@@H](Oc3ccc4c(c3)OCCC4=O)c3ccncc3)c2)cc1 (single isomer, unassigned) [Example 4b, (*S)-7-((3-((4-Methoxybenzyl)oxy)phenyl)(pyridin-4-yl)methoxy)chroman-4-one]",2.6,7.9,15
"O=C1CCOc2cc(O[C@H](c3ccncc3)c3cccc(O)c3)ccc21 (single isomer, unassigned) [Example 5a, (*R)-7-((3-Hydroxyphenyl)(pyridin-4-yl)methoxy)chroman-4-one]",1.9,14,2.8
"N#Cc1ccccc1[C@H](Oc1ccc2c(c1)OCCC2=O)c1ccncc1 (single isomer, unassigned) [Example 7a, (*R)-2-(((4-Oxochroman-7-yl)oxy)(pyridin-4-yl)methyl)benzonitrile]",4.6,0.69,4.4
"NC(=O)c1cccc([C@@H](Oc2ccc3c(c2)OCCC3=O)c2ccncc2)c1 (single isomer, unassigned) [Example 9a, (*R)-3-(((4-oxochroman-7-yl)oxy)(pyridin-4-yl)methyl)benzamide]",6.3,0.92,4.7
"NC(=O)c1cccc([C@H](Oc2ccc3c(c2)OCCC3=O)c2ccncc2)c1 (single isomer, unassigned) [Example 9b, (*S)-3-(((4-oxochroman-7-yl)oxy)(pyridin-4-yl)methyl)benzamide]",11,0.98,4.7
"N#Cc1ccc([C@@H](Oc2ccc3c(c2)OCCC3=O)c2ccncc2)cc1 (single isomer, unassigned) [Example 10a, (*R)-4-(((4-oxochroman-7-yl)oxy)(pyridin-4-yl)methyl)benzonitrile]",4.9,0.95,> 15
"NC(=O)c1ccc([C@@H](Oc2ccc3c(c2)OCCC3=O)c2ccncc2)cc1 (single isomer, unassigned) [Example 11a, (*R)-4-(((4-oxochroman-7-yl)oxy)(pyridin-4-yl)methyl)benzamide]",0.46,0.72,> 15
"NC(=O)c1ccc([C@H](Oc2ccc3c(c2)OCCC3=O)c2ccncc2)cc1 (single isomer, unassigned) [Example 11b, (*S)-4-(((4-oxochroman-7-yl)oxy)(pyridin-4-yl)methyl)benzamide]",4.7,0.95,> 15
"COc1ccc([C@@H](Oc2ccc3c(c2)OCCC3=O)c2ccncc2)cc1 (single isomer, unassigned) [Example 12a, (*R)-7-((4-Methoxyphenyl)(pyridin-4-yl)methoxy)chroman-4-one]",2.6,2,9.9
"COc1ccc([C@H](Oc2ccc3c(c2)OCCC3=O)c2ccncc2)cc1 (single isomer, unassigned) [Example 12b, (*S)-7-((4-Methoxyphenyl)(pyridin-4-yl)methoxy)chroman-4-one]",2.9,1.7,> 15
"COc1cccc([C@@H](Oc2ccc3c(c2)OCCC3=O)c2ccncc2)c1 (single isomer, unassigned) [Example 13b, (*S)-7-((3-methoxyphenyl)(pyridin-4-yl)methoxy)chroman-4-one]",4.7,1.4,> 15
"COc1ccccc1[C@H](Oc1ccc2c(c1)OCCC2=O)c1ccncc1 (single isomer, unassigned) [Example 14a, (*R)-7-((2-Methoxyphenyl)(pyridin-4-yl)methoxy)chroman-4-one]",8.7,1.9,> 15
"Cc1cc([C@H](Oc2ccc3c(c2)OCCC3=O)c2ccc(C(N)=O)cc2)ccn1 (single isomer, unassigned) [Example 15a, (*R)-4-((2-Methylpyridin-4-yl)((4-oxochroman-7-yl)oxy)methyl)benzamide]",0.61,0.44,> 15
"COc1ccc(COc2ccc([C@@H](Oc3ccc4c(c3)OCCC4=O)c3ccncc3)cc2)cc1 (single isomer, unassigned) [Example 17a, (*R)-7-((4-((4-Methoxybenzyl)oxy)phenyl)(pyridin-4-yl)methoxy)chroman-4-one]",4.3,5.8,15
